Laboratory results taken from PubChem BioAssay (NCI).
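Tested at 5 concentrations; 48 h exposure; 96-well plates; endpoints linearly interpolated, else capped at highest concentration. The concentration for full growth arrest is given as TGI.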

Key:
Assay in all cases: NCI anticancer screen, dose series, 48 h
NCI-H226 lung = system: NCI-H226 lung
OVCAR-5 ovarian = system: OVCAR-5 ovarian
K-562 leukemia = system: K-562 leukemia
SK-OV-3 ovarian = system: SK-OV-3 ovarian
SK-MEL-2 melanoma = system: SK-MEL-2 melanoma
OVCAR-4 ovarian = system: OVCAR-4 ovarian
SR leukemia = system: SR leukemia
UACC-257 melanoma = system: UACC-257 melanoma
786-0 renal = system: 786-0 renal
TK-10 renal = system: TK-10 renal
BT-549 breast = system: BT-549 breast
UO-31 renal = system: UO-31 renal
RXF 393 renal = system: RXF 393 renal
KM12 colon = system: KM12 colon
RPMI-8226 leukemia = system: RPMI-8226 leukemia
SNB-75 CNS = system: SNB-75 CNS
PC-3 prostate = system: PC-3 prostate
UACC-62 melanoma = system: UACC-62 melanoma
T-47D breast = system: T-47D breast
A498 renal = system: A498 renal
MDA-MB-231 breast = system: MDA-MB-231 breast
SNB-19 CNS = system: SNB-19 CNS
CCRF-CEM leukemia = system: CCRF-CEM leukemia
NCI/ADR-RES ovarian = system: NCI/ADR-RES ovarian
SN12C renal = system: SN12C renal
HOP-62 NSCLC = system: HOP-62 NSCLC
HT29 colon = system: HT29 colon
HCT-116 colon = system: HCT-116 colon
SF-268 CNS = system: SF-268 CNS
SK-MEL-28 melanoma = system: SK-MEL-28 melanoma
NCI-H23 lung = system: NCI-H23 lung
HCC-2998 colon = system: HCC-2998 colon
OVCAR-3 ovarian = system: OVCAR-3 ovarian
A549 NSCLC = system: A549 NSCLC
MDA-MB-435 = system: MDA-MB-435
HCT-15 colon = system: HCT-15 colon
MCF7 breast = system: MCF7 breast
SF-295 CNS = system: SF-295 CNS
ACHN renal = system: ACHN renal
MALME-3M melanoma = system: MALME-3M melanoma
DU-145 prostate = system: DU-145 prostate
SW-620 colon = system: SW-620 colon
MDA-N = system: MDA-N
CAKI-1 renal = system: CAKI-1 renal
EKVX NSCLC = system: EKVX NSCLC
MOLT-4 leukemia = system: MOLT-4 leukemia
COLO 205 colon = system: COLO 205 colon
HS 578T breast = system: HS 578T breast
SK-MEL-5 melanoma = system: SK-MEL-5 melanoma
OVCAR-8 ovarian = system: OVCAR-8 ovarian
M14 melanoma = system: M14 melanoma
U251 CNS = system: U251 CNS
NCI-H522 lung = system: NCI-H522 lung
IGROV1 ovarian = system: IGROV1 ovarian
LOX IMVI melanoma = system: LOX IMVI melanoma
HOP-92 NSCLC = system: HOP-92 NSCLC
SF-539 CNS = system: SF-539 CNS
NCI-H460 lung = system: NCI-H460 lung

Measured: TGI

COC(=O)CCC1(C)C2CCC1/C(=N/O)C2 (stereo not drawn)
> 100 µM: NCI-H226 lung | OVCAR-5 ovarian | K-562 leukemia | SK-OV-3 ovarian | SK-MEL-2 melanoma | OVCAR-4 ovarian | SR leukemia | UACC-257 melanoma | 786-0 renal | TK-10 renal | BT-549 breast | UO-31 renal | RXF 393 renal | KM12 colon | RPMI-8226 leukemia | SNB-75 CNS | PC-3 prostate | UACC-62 melanoma | T-47D breast | A498 renal | MDA-MB-231 breast | SNB-19 CNS | CCRF-CEM leukemia | NCI/ADR-RES ovarian | SN12C renal | HOP-62 NSCLC | HT29 colon | HCT-116 colon | SF-268 CNS | SK-MEL-28 melanoma | NCI-H23 lung | HCC-2998 colon | OVCAR-3 ovarian | A549 NSCLC | MDA-MB-435 | HCT-15 colon | MCF7 breast | SF-295 CNS | ACHN renal | MALME-3M melanoma | DU-145 prostate | SW-620 colon | MDA-N | CAKI-1 renal | EKVX NSCLC | MOLT-4 leukemia | COLO 205 colon | HS 578T breast | SK-MEL-5 melanoma | OVCAR-8 ovarian | M14 melanoma | U251 CNS | NCI-H522 lung | IGROV1 ovarian

CCc1nc(N)c2nc(-c3ccc(C#N)cc3)oc2n1
> 100 µM: NCI-H226 lung | OVCAR-5 ovarian | K-562 leukemia | SK-MEL-2 melanoma | SR leukemia | UACC-257 melanoma | 786-0 renal | TK-10 renal | BT-549 breast | UO-31 renal | RXF 393 renal | KM12 colon | RPMI-8226 leukemia | SNB-75 CNS | PC-3 prostate | UACC-62 melanoma | T-47D breast | LOX IMVI melanoma | A498 renal | HOP-92 NSCLC | MDA-MB-231 breast | SNB-19 CNS | CCRF-CEM leukemia | NCI/ADR-RES ovarian | SN12C renal | HOP-62 NSCLC | SF-539 CNS | HT29 colon | HCT-116 colon | SF-268 CNS | SK-MEL-28 melanoma | NCI-H23 lung | HCC-2998 colon | OVCAR-3 ovarian | A549 NSCLC | MDA-MB-435 | HCT-15 colon | MCF7 breast | SF-295 CNS | ACHN renal | NCI-H460 lung | DU-145 prostate | SW-620 colon | MDA-N | CAKI-1 renal | EKVX NSCLC | MOLT-4 leukemia | COLO 205 colon | HS 578T breast | SK-MEL-5 melanoma | OVCAR-8 ovarian | M14 melanoma | NCI-H522 lung | IGROV1 ovarian
